Results published in paper PMC5357622, “Chelation Motifs Affecting Metal-dependent Viral Enzymes: N′-acylhydrazone Ligands as Dual Target Inhibitors of HIV-1 Integrase and Reverse Transcriptase Ribonuclease H Domain” (Frontiers in Microbiology, 2017).
Where “and” joins values, the source holds several entries; their conditions need not be identical. Equal entries are not always repeated.

How the values were obtained:
[1] = target: T1, HIV-1 RT-associated RNase H (Human immunodeficiency virus type 1 group M subtype B, UniProt P03366); experiment: HIV-1 RT-associated RNase H assay (fluorescent RNA/DNA hybrid); format: biochemical
T1 construct: Human immunodeficiency virus type 1 heterodimeric RT was expressed and purified; made in house
Protocol: Human immunodeficiency virus type 1 heterodimeric RT was expressed and purified as previously described ([Esposito et al., 2011]; [Meleddu et al., 2014]). The HIV-1 RT-associated RNase H activity was measured as described ([Corona et al., 2014a]; [Meleddu et al., 2015]). Briefly, 20 ng of HIV-1 RT was incubated in 100 μL reaction volume containing 50 mM Tris-HCl (pH 7.8), 6 mM MgCl2, 1 mM DTT, 80 mM KCl, hybrid RNA/DNA (5′-[…]-3′-Fluorescein, 5′-[…]-3′-Dabcyl) and 2 nM RT. The reaction mixture was incubated for 1 h at 37°C; the reaction was stopped by addition of EDTA and products were measured with a Victor 3 (Perkin Elmer model 1420-051) equipped with filters for 490/528 nm (excitation/emission wavelength).

[2] = target: HIV-1 IN in presence of LEDGF/p75 (Human immunodeficiency virus type 1 group M subtype B, UniProt P03366); experiment: HIV-1 IN/LEDGF HTRF LEDGF-dependent integration assay
Sequence of HIV-1 IN in presence of LEDGF/p75 (O75475 whole entry, other chains not shown): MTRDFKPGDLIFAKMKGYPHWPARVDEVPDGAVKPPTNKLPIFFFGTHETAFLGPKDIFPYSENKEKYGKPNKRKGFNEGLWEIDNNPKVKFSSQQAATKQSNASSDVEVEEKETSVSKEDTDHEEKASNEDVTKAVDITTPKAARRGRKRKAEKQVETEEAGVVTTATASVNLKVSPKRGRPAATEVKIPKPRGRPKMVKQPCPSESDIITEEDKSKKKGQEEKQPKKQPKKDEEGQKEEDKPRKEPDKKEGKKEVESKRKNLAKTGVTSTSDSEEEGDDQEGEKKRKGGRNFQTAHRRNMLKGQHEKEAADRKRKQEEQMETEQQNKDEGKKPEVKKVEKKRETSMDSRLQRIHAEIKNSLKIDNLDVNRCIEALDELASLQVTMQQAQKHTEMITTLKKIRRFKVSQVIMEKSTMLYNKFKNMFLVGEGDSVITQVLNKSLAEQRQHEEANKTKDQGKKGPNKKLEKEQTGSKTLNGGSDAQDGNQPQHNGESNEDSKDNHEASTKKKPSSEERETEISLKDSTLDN
Protocol: The IN-LEDGF/p75 dependent assay allows to measure the inhibition of 3′ processing and strand transfer IN reactions in presence of recombinant LEDGF/p75 protein, as previously described ([Tintori et al., 2015]). Briefly, 50 nM IN was pre-incubated with increasing concentration of compounds for 1 h at room temperature in reaction buffer containing 20 mM HEPES pH 7.5, 1 mM DTT, 1% glycerol, 20 mM MgCl2, 0.05% Brij-35 and 0.1 mg/ml BSA. DNA donor substrate, DNA acceptor substrate and 50 nM LEDGF/p75 protein were added and incubated at 37°C for 90 min. After the incubation, 4 nM of Europium-Streptavidin were added to the reaction mixture and the HTRF signal was recorded using a Perkin Elmer Victor 3 plate reader using a 314 nm for excitation wavelength and 668 and 620 nm for the wavelength of the acceptor and the donor substrates emission, respectively.

in vitro = format: cell-based; conditions: human
Protocol: (§1) The procedure to determine anti-HIV activity and cytotoxicity of the compounds in human lymphocyte MT-4 cells was published elsewhere ([Pannecouque et al., 2008]). Briefly, serial dilutions of the compounds were added to 96-well plates containing the MT-4 cells. To the virus-infected wells, 100–300 CCID50 (50% cell culture infectious dose-50%) of HIV-1 (strain IIIB) or HIV-2 (strain ROD) was added. The mock-infected wells received the compounds without the virus. After 5 days incubation, the spectrophotometric MTT assay was performed to determine the effect of the compounds on the viability of the mock- and HIV-infected cells.

HIV-1 (strain IIIB) = experiment: Cell-based HIV assay in MT-4 cells (MTT, virus-induced cytopathic effect); conditions: Human immunodeficiency virus 1, IIIB
Protocol: as §1

SMILES	IC50 [1]	IC50 [2]	also measured
CCCCCCCC(=O)N/N=C/c1cccc(O)c1O [Compound 1, N′-2,3-dihydroxy benzylidene heptyl hydrazone]	~60 µM and 61 µM	> 100 µM	–
CCCCCCCC(=O)N/N=C/c1cccc(OC)c1O [Compound 2]	~60 µM and 62 µM	–	–
O=C(N/N=C/c1cccc(O)c1O)c1ccccc1 [Compound 3]	> 100 µM	> 100 µM	HIV-1 RNase H IC50 [1]: completely abolished
COc1cccc(/C=N/NC(=O)c2ccccc2)c1O [Compound 4]	> 100 µM	–	HIV-1 RNase H IC50 [1]: completely abolished
O=C(N/N=C/c1cccc(O)c1O)c1ccccc1O [Compound 5]	> 100 µM	–	HIV-1 RNase H IC50 [1]: No inhibition
COc1cccc(/C=N/NC(=O)c2ccccc2O)c1O [Compound 6]	37 ± 5 µM	> 100 µM	–
O=C(N/N=C/c1ccc(O)c(O)c1O)c1ccccc1O [Compound 7]	25 µM and 25.3 µM	7.1 ± 0.2 µM	–
O=C(N/N=C/c1cc(O)c(O)cc1O)c1ccccc1O [Compound 8]	8.8 ± 3.1 µM	30 ± 1 µM	–
O=C(N/N=C/c1c(O)cc(O)cc1O)c1ccccc1O [Compound 9]	9.6 ± 3.4 µM	9.4 ± 0.4 µM	–
O=C(N/N=C/c1cc(O)c(O)c(O)c1)c1ccccc1O [Compound 10]	4.1 ± 0.2 µM	> 100 µM	–
O=C(N/N=C/c1ccccc1)c1cc(O)c(O)c(O)c1 [Compound 11]	2.6 ± 0.6 µM	> 100 µM	–
O=C(N/N=C/c1ccccn1)c1cc(O)c(O)c(O)c1 [Compound 12]	3.2 ± 0.5 µM	> 100 µM	–
O=C(N/N=C/c1ccccc1O)c1cc(O)c(O)c(O)c1 [Compound 13]	2.3 ± 0.7 µM	> 100 µM	–
O=C(N/N=C/c1cccc(O)c1O)c1cc(O)c(O)c(O)c1 [Compound 14]	3.1 ± 0.5 µM	> 100 µM	–
COc1cccc(/C=N/NC(=O)c2cc(O)c(O)c(O)c2)c1O [Compound 15]	0.92 ± 0.02 µM	> 100 µM	–
O=C(N/N=C/c1cc(O)ccc1O)c1cc(O)c(O)c(O)c1 [Compound 16]	2.1 ± 0.1 µM	69 ± 5 µM	–
COc1ccc(O)c(/C=N/NC(=O)c2cc(O)c(O)c(O)c2)c1 [Compound 17]	2 ± 0.5 µM	> 100 µM	–
O=C(N/N=C/c1ccc(O)cc1O)c1cc(O)c(O)c(O)c1 [Compound 18]	1.7 ± 0.1 µM	16 ± 3 µM	CC50 at 5 days (in vitro): 61 µM; EC50 (HIV-1 (strain IIIB); MT4, 120 h, read-out: EC50 for HIV-1 (50% protection from virus-induced cytopathic effect), 5 days, mean ± SD of two independent tests): 17 ± 4 µM; inhibition at 25 µM (HIV-1 (strain IIIB); MT4, at a concentration of 25 μM): 55 to 82%; RNase H inhibition potency relative to IN activity ([1]; RNase H versus IN): ninefold more potently
COc1cc(C(=O)N/N=C/c2cc(O)ccc2O)cc(OC)c1OC [Compound 19]	> 100 µM	> 100 µM	–
O=C(N/N=C/c1ccc(O)c(O)c1O)c1cc(O)c(O)c(O)c1 [Compound 20]	0.175 µM and 0.17 µM	0.085 ± 0.025 µM	–
O=C(N/N=C/c1cc(O)c(O)cc1O)c1cc(O)c(O)c(O)c1 [Compound 21]	0.62 ± 0.1 µM	0.08 ± 0.01 µM	–
O=C(N/N=C/c1c(O)cc(O)cc1O)c1cc(O)c(O)c(O)c1 [Compound 22]	9.7 ± 1.6 µM	1.8 ± 0.1 µM	–
O=C(N/N=C/c1cc(O)c(O)c(O)c1)c1cc(O)c(O)c(O)c1 [Compound 23]	0.18 ± 0.03 µM	0.165 ± 0.025 µM	–
CCOC(=O)C(=O)CC(=O)/C=C/c1cccn1Cc1ccc(F)cc1 [RDS1643, reference compound]	7.5 ± 0.9 µM	–	–
